# Literature values as cited in patent US10966960B2 (Treeway TW001 B.V., priority 2017, dated 2021).
# Details: 25° C.
smiles,measurement,value
"CC1=NN(c2ccccc2)C(=O)C1 [edaravone, 3-methyl-1-phenyl-2-pyrazolin-5-one]",solubility in water,~1850 µg/mL
